Experiments:
5HT2c = biological target: T1, 5HT2c (Rattus norvegicus, UniProt P08909); test: Ca2+ mobilization by FACS (Indo-1) in NIH3T3-POP cells expressing 5HT2c; format: cell-based; details: Mesulergine (10 μM) pretreated division arrested cells, 10 μM 5HT
T1 sequence (P08909 33-460): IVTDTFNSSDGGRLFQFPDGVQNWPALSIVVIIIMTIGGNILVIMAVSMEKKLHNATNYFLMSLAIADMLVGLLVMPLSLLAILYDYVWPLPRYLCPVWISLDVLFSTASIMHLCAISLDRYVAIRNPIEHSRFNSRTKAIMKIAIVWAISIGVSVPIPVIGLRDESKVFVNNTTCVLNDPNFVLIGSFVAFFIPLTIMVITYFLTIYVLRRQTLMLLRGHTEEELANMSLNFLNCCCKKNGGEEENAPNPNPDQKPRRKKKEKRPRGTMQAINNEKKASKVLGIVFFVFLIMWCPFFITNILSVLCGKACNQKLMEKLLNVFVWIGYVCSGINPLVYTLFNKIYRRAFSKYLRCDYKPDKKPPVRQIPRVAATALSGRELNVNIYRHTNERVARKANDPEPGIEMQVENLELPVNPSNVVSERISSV
From the text: (§1) In order to measure and to analyze Ca^2+ mobilization, a commercially available cell sorter was used. Excitation was set at 360 nm, and emissions were set at both 400 (+/−15 nm) and 500 (+/−20)nm. The emissions were monitored simultaneously, and the emission ratio at 400 nm/500 nm was used to report the intracellular rise of Ca^2+ concentration. Untreated cells were used to set a baseline ratio.

parental NIH3T3 cells = test: Ca2+ mobilization control in untransfected parental NIH3T3 cells; format: cell-based; details: parental NIH3T3 cells not transfected; data not shown
From the text: as §1

Compound	cells responding to serotonin in Ca++ mobilization (5HT2c) [%]	fluorescence change when treated with serotonin (parental NIH3T3 cells)
CN1C[C@@H](NS(=O)(=O)N(C)C)C[C@@H]2c3cccc4c3c(cn4C)C[C@H]21 [Mesulergine]	0.1	
NCCc1c[nH]c2ccc(O)cc12 [serotonin]		no fluorescence change

— patent US20120276545A1, “METHOD FOR USING DIVISION ARRESTED CELLS IN SCREENING ASSAYS” (LIFE TECHNOLOGIES CORPORATION, priority 2002, published 2012)
